From EPA's ToxRefDB 2

Columns and labels:
dog [1] = details: Sub-acute repeat dose toxicity; beagle; Oral; Gavage/Intubation; dose end: 4 week; group: systemic; systemic / in life observation / clinical signs / abnormal feces
rat [2] = details: Sub-acute repeat dose toxicity, sprague dawley, Oral, Gavage/Intubation, dose end: 4 week, group: systemic
rat [3] = details: Prenatal developmental toxicity study, sprague dawley, Oral, Gavage/Intubation, dose end: 17 GD
rabbit = details: Prenatal developmental toxicity study, new zealand white, Oral, Gavage/Intubation, dose end: 19 GD
rat [4] = details: Fertility (Segment I), sprague dawley, Oral, Gavage/Intubation, dose end: 7 GD
rat [5] = details: Prenatal developmental toxicity study, sprague dawley, Oral, Gavage/Intubation, dose end: 17 GD; remark: listed apart in the source
rat [6] = details: Developmental neurotoxicity study, long evans, Oral, Gavage/Intubation, dose end: 110 PND, group: cannot be grouped
rat [7] = details: Subchronic oral toxicity in rodents, fischer, Water, dose end: 13 week, group: systemic
rat [8] = details: Combined chronic toxicity/carcinogenicity, fischer, Oral, Feed, dose end: 24 month, group: systemic
dog [9] = details: Chronic toxicity; beagle; Oral; Feed; dose end: 12 month; group: systemic; systemic / pathology microscopic / kidney / adenoma
mouse [10] = details: Carcinogenicity, cd1, Oral, [Not Specified], dose end: 24 month, group: systemic
rat [11] = details: Prenatal developmental toxicity study, sprague dawley, Oral, Gavage/Intubation, dose end: 15 GD
rat [12] = details: Peri- and post-natal toxicity study (Segment III); sprague dawley; Oral; Gavage/Intubation; dose end: 40 PND; group: parental; systemic / clinical chemistry / estradiol / estradiol + systemic / organ weight / adrenal gland / absolute
mouse [13] = details: Carcinogenicity, b6c3f1, Oral, Feed, dose end: 103 week, group: systemic
mouse [14] = details: Sub-acute repeat dose toxicity, b6c3f1, Oral, Feed, dose end: 14 day, group: systemic
rat [15] = details: Carcinogenicity; fischer; Oral; Feed; dose end: 103 week; group: systemic; systemic / in life observation / body weight / body weight
rat [16] = details: Sub-acute repeat dose toxicity, fischer, Oral, Feed, dose end: 14 day, group: systemic
rat [17] = details: Subchronic oral toxicity in rodents, fischer, Feed, dose end: 13 week, group: systemic, systemic / in life observation / body weight / body weight
rat [18] = details: Combined chronic toxicity/carcinogenicity, sprague dawley, Oral, Feed, dose end: 104 week, group: systemic
[19] = systemic / clinical chemistry / cholesterol / cholesterol + systemic / pathology microscopic / kidney / karyomegaly + systemic / pathology …
[20] = systemic / pathology microscopic / kidney / karyomegaly + systemic / pathology microscopic / kidney / necrosis + systemic / pathology …
[21] = group: developmental, developmental / developmental malformation / bone / branched + developmental / developmental malformation / bone / full supernumerary + …
[22] = group: developmental, developmental / developmental malformation / bone / short + developmental / developmental malformation / bone / unossified + developmental…
[23] = group: maternal, systemic / in life observation / body weight / body weight + systemic / in life observation / body weight / body weight gain + systemic / in…
[24] = group: developmental, systemic / in life observation / body weight / fetal weight
[25] = group: maternal, systemic / in life observation / body weight / body weight gain + systemic / in life observation / clinical signs / defecation + systemic / …
[26] = group: maternal, reproductive / reproductive performance / estrous cycle / corpora lutea + reproductive / reproductive performance / implantations / …
[27] = group: parental, systemic / in life observation / body weight / body weight gain + systemic / in life observation / food consumption / food consumption
[28] = group: developmental, developmental / developmental malformation / trunk / thoracogastroschisis + systemic / in life observation / body weight / fetal weight
[29] = group: maternal, reproductive / reproductive performance / postimplantation loss / postimplantation loss + systemic / in life observation / body weight / …
[30] = systemic / in life observation / body weight / body weight gain + systemic / in life observation / clinical signs / vaginal discharge + …
[31] = systemic / urinalysis / protein / protein + systemic / urinalysis / bilirubin / total bilirubin
[32] = systemic / urinalysis / protein / protein + systemic / urinalysis / bilirubin / total bilirubin + systemic / urinalysis / specific gravity/…
[33] = systemic / pathology microscopic / adrenal gland / pheochromocytoma benign + systemic / pathology microscopic / adrenal gland / …
[34] = systemic / pathology gross / lung / nodule(s)
[35] = systemic / pathology microscopic / liver / hemangiosarcoma + systemic / pathology microscopic / lung / adenoma + systemic / pathology …
[36] = group: developmental, developmental / developmental malformation / bone / absent
[37] = group: maternal, systemic / in life observation / clinical signs / defecation (diarrhea) + systemic / in life observation / clinical signs / soft stools
[38] = systemic / pathology microscopic / liver / hepatocellular adenoma + systemic / pathology microscopic / liver / hepatocellular carcinoma
[39] = systemic / in life observation / body weight / body weight + systemic / in life observation / body weight / body weight gain + systemic / in…
[40] = systemic / in life observation / body weight / body weight gain + systemic / in life observation / mortality / mortality + systemic / in …
[41] = systemic / pathology microscopic / kidney / adenoma + systemic / organ weight / kidney / absolute + systemic / organ weight / kidney / …

Cc1nc(-c2ccccn2)ncc1C(=O)Nn1cc(C)c2cc(F)ccc21
LEL (dog [1]): 100 mg/kg/day
LOAEL (dog [1]): 100 mg/kg/day
NEL (dog [1]): 30 mg/kg/day
NOAEL (dog [1]): 30 mg/kg/day
LOAEL (rat [2]; [19]): 110 mg/kg/day
NOAEL (rat [2]; [19]): 30 mg/kg/day
LEL (rat [2]; [20]): 10 mg/kg/day
NEL (rat [2]; [20]): < 10 mg/kg/day
LOAEL (rat [3]; [21]): > 110 mg/kg/day
NOAEL (rat [3]; [21]): ≥ 110 mg/kg/day
LEL (rat [3]; [22]): 10 mg/kg/day
NEL (rat [3]; [22]): < 10 mg/kg/day
LOAEL (rat [3]; [23]): 110 mg/kg/day
NEL (rat [3]; [23]): 10 mg/kg/day
NOAEL (rat [3]; [23]): 30 mg/kg/day
LEL (rat [3]; group: maternal, systemic / in life observation / food consumption / food consumption): 30 mg/kg/day
LEL (rabbit; [24]): 500 mg/kg/day
LOAEL (rabbit; [24]): > 2000 mg/kg/day
NEL (rabbit; [24]): < 500 mg/kg/day
NOAEL (rabbit; [24]): ≥ 2000 mg/kg/day
LEL (rabbit; [25]): 500 mg/kg/day
LOAEL (rabbit; [25]): > 2000 mg/kg/day
NEL (rabbit; [25]): < 500 mg/kg/day
NOAEL (rabbit; [25]): ≥ 2000 mg/kg/day
LEL (rat [4]; [26]): 110 mg/kg/day
LOAEL (rat [4]; [26]): > 110 mg/kg/day
NEL (rat [4]; [26]): 30 mg/kg/day
NOAEL (rat [4]; [26]): ≥ 110 mg/kg/day
LEL (rat [4]; group: parental, systemic / in life observation / body weight / body weight gain): 30 mg/kg/day
LOAEL (rat [4]; [27]): > 110 mg/kg/day
NEL (rat [4]; [27]): 10 mg/kg/day
NOAEL (rat [4]; [27]): ≥ 110 mg/kg/day
LOAEL (rat [5]; [28]): > 110 mg/kg/day
NEL (rat [5]; [28]): 10 mg/kg/day
NOAEL (rat [5]; [28]): ≥ 110 mg/kg/day
LEL (rat [5]; [24]): 30 mg/kg/day
LEL (rat [5]; [29]): 110 mg/kg/day
LOAEL (rat [5]; [29]): > 110 mg/kg/day
NEL (rat [5]; [29]): 30 mg/kg/day
NOAEL (rat [5]; [29]): ≥ 110 mg/kg/day

CCC[CH2][Sn]([CH2]CCC)([CH2]CCC)[O][Sn]([CH2]CCC)([CH2]CCC)[CH2]CCC [Bis(tributyltin)oxide]
NEL (rat [6]; developmental / developmental malformation / mouth / jaw / cleft palate + developmental / offspring survival late / [other] / [other] + …): 2.5 mg/kg/day
LOAEL (rat [6]; [30]): > 16 mg/kg/day
NOAEL (rat [6]; [30]): ≥ 16 mg/kg/day
LEL (rat [6]; systemic / in life observation / body weight / offspring (pup) weight): 5 mg/kg/day

CN(C)NC(=O)CCC(=O)O [Daminozide]
LEL (rat [7]; [31]): 2.01 mg/kg/day
LOAEL (rat [7]; [31]): 2.01 mg/kg/day
NEL (rat [7]; [32]): 0.8 mg/kg/day
NOAEL (rat [7]; [32]): 0.8 mg/kg/day
LOAEL (rat [8]; [33]): > 500 mg/kg/day
NEL (rat [8]; [33]): 25 mg/kg/day
NOAEL (rat [8]; [33]): ≥ 500 mg/kg/day
LEL (rat [8]; systemic / pathology microscopic / adrenal gland / pheochromocytoma malignant): 250 mg/kg/day
LEL (dog [9]): 188 mg/kg/day
LOAEL (dog [9]): > 188 mg/kg/day
NEL (dog [9]): 75 mg/kg/day
NOAEL (dog [9]): ≥ 188 mg/kg/day
LEL (mouse [10]; [34]): 42 mg/kg/day
NEL (mouse [10]; [34]): < 42 mg/kg/day
LOAEL (mouse [10]; [35]): > 1410 mg/kg/day
NOAEL (mouse [10]; [35]): ≥ 1410 mg/kg/day
LEL (rat [11]; [36]): 1800 mg/kg/day
LOAEL (rat [11]; [36]): 1800 mg/kg/day
NEL (rat [11]; [36]): 390 mg/kg/day
NOAEL (rat [11]; [36]): 390 mg/kg/day
LEL (rat [11]; [37]): 1800 mg/kg/day
LOAEL (rat [11]; [37]): 1800 mg/kg/day
NEL (rat [11]; [37]): 390 mg/kg/day
NOAEL (rat [11]; [37]): 390 mg/kg/day

CCOC(=O)c1ccc(O)cc1 [Ethylparaben]
LEL (rat [12]): 1000 mg/kg/day
LOAEL (rat [12]): > 1000 mg/kg/day
NEL (rat [12]): 250 mg/kg/day
NOAEL (rat [12]): ≥ 1000 mg/kg/day

C=CCc1ccc(O)c(OC)c1 [Eugenol]
LOAEL (mouse [13]; systemic / in life observation / body weight / body weight): 900 mg/kg/day
NOAEL (mouse [13]; systemic / in life observation / body weight / body weight + systemic / pathology microscopic / liver / adenoma/carcinoma combined): 450 mg/kg/day
LEL (mouse [13]; [38]): 450 mg/kg/day
NEL (mouse [13]; [38]): < 450 mg/kg/day
LEL (mouse [14]; systemic / in life observation / body weight / body weight + systemic / in life observation / body weight / body weight gain): 1880 mg/kg/day
LOAEL (mouse [14]; [39]): > 15000 mg/kg/day
NEL (mouse [14]; [39]): 900 mg/kg/day
NOAEL (mouse [14]; [39]): ≥ 15000 mg/kg/day
LEL (rat [15]): 625 mg/kg/day
LOAEL (rat [15]): 625 mg/kg/day
NEL (rat [15]): 300 mg/kg/day
NOAEL (rat [15]): 300 mg/kg/day
LEL (rat [16]; systemic / in life observation / body weight / body weight gain): 1250 mg/kg/day
NEL (rat [16]; systemic / in life observation / body weight / body weight gain + systemic / in life observation / mortality / mortality): 625 mg/kg/day
LOAEL (rat [16]; [40]): > 5000 mg/kg/day
NOAEL (rat [16]; [40]): ≥ 5000 mg/kg/day
LEL (rat [17]): 300 mg/kg/day
LOAEL (rat [17]): 625 mg/kg/day
NEL (rat [17]): 150 mg/kg/day
NOAEL (rat [17]): 300 mg/kg/day

O=P(OC(CCl)CCl)(OC(CCl)CCl)OC(CCl)CCl [TDCPP]
NEL (rat [18]; systemic / pathology microscopic / adrenal gland / adenoma + systemic / pathology microscopic / kidney / adenoma + systemic / pathology …): 5 mg/kg/day
LEL (rat [18]; [41]): 20 mg/kg/day
LOAEL (rat [18]; [41]): > 80 mg/kg/day
NOAEL (rat [18]; [41]): ≥ 80 mg/kg/day
